The values below come from ChEMBL document CHEMBL4842340, “Development of Cagrilintide, a Long-Acting Amylin Analogue” (J Med Chem, 2021).

As usually defined, the EC50 is the concentration at which the effect is half-maximal. In general, solubility refers to the concentration that dissolves in the medium under given conditions. What is called IC50 is the midpoint of a concentration-inhibition curve.

Data set [1] is described as follows: Agonist activity at human calcitonin receptor expressed in BHK570 cells assessed as increase in intracellular cAMP concentration incubated for 3 hrs in absence of albumin by CRE luciferase reporter gene assay. The class given is cell-based. The conditions noted are these: BHK570, 3 h.
Data set [2] can be described thus: Solubility of the compound in bis-tris propane at pH 6 by UPLC analysis. The data set is classed as physicochemical. The conditions noted are these: bis-tris propane buffer.
Data set [3] can be described thus: Solubility of the compound in bis-tris propane at pH 7 by UPLC analysis. The class given is physicochemical. The conditions noted are these: bis-tris propane buffer.
Data set [4] deals with Insulin (Homo sapiens) (UniProt P01308). Kind of data set: Effect on insulin (unknown origin) amyloid fibril formation assessed as lag time in glycyl-glycine buffer at pH 4 measured after 45 hrs by thioflavin-T fluorescence assay.
Insulin (Homo sapiens), sequence (P01308 whole entry): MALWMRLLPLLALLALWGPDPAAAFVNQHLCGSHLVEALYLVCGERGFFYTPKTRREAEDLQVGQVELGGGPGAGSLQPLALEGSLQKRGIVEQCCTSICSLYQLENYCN
Data set [5] in a line: Solubility of the compound in bis-tris propane at pH 8 by UPLC analysis. The data set is classed as physicochemical. Particulars: bis-tris propane buffer.
A short description of data set [6]: Solubility of the compound in lactate at pH 5 by UPLC analysis. The data set is classed as physicochemical. Particulars: lactate buffer.
Data set [7] can be described thus: Agonist activity at rat calcitonin receptor expressed in BHK-13 cells assessed as increase in intracellular cAMP concentration incubated for 25 mins by CRE luciferase reporter gene assay. The conditions noted are these: BHK-13, 25 min. The data set is classed as cell-based. (In general: In a reporter assay the amount or activity of a reporter protein is the signal.)

Data set [8] is described as follows: Solubility of the compound in bis-tris propane at pH 7.5 by UPLC analysis. The data set is classed as physicochemical. The conditions noted are these: bis-tris propane buffer.
For data set [9], the species on record is Homo sapiens. Kind of data set: Ratio of IC50 for displacement of [125I]-calcitonin from human calcitonin receptor expressed in tk-ts 13 cells to IC50 for displacement of [125I]-amylin from human AMY3R (CTR+RAMP3) expressed in BHK-13 cells. The data set is classed as cell-based. In general terms: Loss of bound radioactivity is the signal in a displacement assay; it reports binding, not function.

Data set [10] is described as follows: Agonist activity at rat AMY3R (CT+RAMP3) expressed in tk-ts13 cells assessed as increase in intracellular cAMP level incuabted for 25 mins by CRE luciferase reporter gene assay. The class given is cell-based. The conditions noted are these: tk-ts13, 25 min.
The species named for data set [11] is Rattus norvegicus. Kind of data set: Ratio of EC50 for rat calcitonin receptor expressed in BHK-13 cells to EC50 for rat AMY3R (CT+RAMP3) expressed in tk-ts13 cells. The class given is cell-based.
Data set [12] in a line: Agonist activity at human AMY3R (CT+RAMP3) expressed in Hollex1 cells incubated for 3 hrs by luminescence assay. Particulars: Hollex1, 3 h. The class given is cell-based.
Data set [13] addresses Insulin (Homo sapiens) (UniProt P01308). The experiment in a line: Effect on insulin (unknown origin) amyloid fibril formation assessed as peptide recovery in glycyl-glycine buffer at pH 4 measured after 45 hrs by thioflavin-T fluorescence assay relative to control. Also on record: concentration or dose not given beside the values.
For data set [14], the species on record is Rattus norvegicus. The experiment in a line: Ratio of IC50 for displacement of [125I]-calcitonin from rat calcitonin receptor expressed in tk-ts 13 cells to IC50 for displacement of [125I]-amylin from rat AMY3R (CTR+RAMP3) expressed in BHK-13 cells. The data set is classed as cell-based.
For data set [15], the system named is Rattus norvegicus. Kind of data set: Reduction in food intake in Sprague-Dawley rat at 3 nmol/kg, sc administered as single dose measured after 24 to 48 hrs relative to control. The data set is classed as functional. Also on record: scale not given: the % may be the effect or the level left. Particulars: time 24-48 hrs.
Data set [16] in a line: Solubility of the compound in lactate at pH 4 by UPLC analysis. The data set is classed as physicochemical. The conditions noted are these: lactate buffer.
Data set [17] in a line: Displacement of [125I]-amylin from human AMY3R (CTR+RAMP3) expressed in BHK-13 cells measured after 120 mins by scintillation proximity assay. The class given is cell-based.
Data set [18] can be described thus: Displacement of [125I]-calcitonin from rat calcitonin receptor expressed in tk-ts 13 cells measured after 120 mins by scintillation proximity assay. The class given is cell-based. Particulars: tk-ts13.
For data set [19], the species on record is Homo sapiens. Kind of data set: Ratio of EC50 for human calcitonin receptor expressed in BHK570 cells to EC50 for human AMY3R (CT+RAMP3) expressed in Hollex1 cells. The class given is cell-based.
Data set [20] can be described thus: Solubility of the compound in bis-tris propane at pH 6.5 by UPLC analysis. The class given is physicochemical. The conditions noted are these: bis-tris propane buffer.
Data set [21] concerns Rattus norvegicus. The experiment in a line: Reduction in food intake in Sprague-Dawley rat at 3 nmol/kg, sc administered as single dose measured upto 24 hrs relative to control. The data set is classed as functional. Also on record: scale not given: the % may be the effect or the level left. Particulars: time hrs <=24.
Data set [22] in a line: Displacement of [125I]-calcitonin from human calcitonin receptor expressed in tk-ts 13 cells measured after 120 mins by scintillation proximity assay. The data set is classed as cell-based. The conditions noted are these: tk-ts13.
The nature of data set [23]: Solubility of the compound in lactate at pH 3 by UPLC analysis. Particulars: lactate buffer. The class given is physicochemical.
A short description of data set [24]: Displacement of [125I]-amylin from rat AMY3R (CTR+RAMP3) expressed in BHK-13 cells measured after 120 mins by scintillation proximity assay. The class given is cell-based.

The structures appear in SMILES notation. ≈ marks a conversion by molar mass, not a printed value. *1 amine or outer side, *2 acyl side, *3 side chain or, on linkers, in order; H or OH if unused. Where a SMILES comes first, the peptide text is derived from it. Bridges are numbered along the chain shown (N, C = ends). [ ]: non-standard residue; d: D form. The star is where a group is joined. C20 diacid = O=C(O)CCCCCCCCCCCCCCCCCCC(=O)*; γGlu = O=C(O)[C@H](CCC(=O)[*:2])N[*:1]; AEEA = NCCOCCOCC(=O)O

Consider `CC[C@H](C)[C@H](NC(=O)[C@@H]1CCCN1C(=O)CNC(=O)[C@H](Cc1ccccc1)NC(=O)[C@H](CC(N)=O)NC(=O)[C@H](CC(N)=O)NC(=O)[C@H](CO)NC(=O)[C@H](CO)NC(=O)[C@H](Cc1cnc[nH]1)NC(=O)[C@H](Cc1cnc[nH]1)NC(=O)[C@H](CC(C)C)NC(=O)[C@H](Cc1ccccc1)NC(=O)[C@H](CCC(=O)O)NC(=O)[C@H](C)NC(=O)[C@H](CC(C)C)NC(=O)[C@H](CCCNC(=N)N)NC(=O)[C@H](CCC(N)=O)NC(=O)[C@@H](NC(=O)[C@H](C)NC(=O)[C@@H]1CSSC[C@H](NC(=O)[C@H](CCCNC(=N)N)NC(=O)CC[C@H](NC(=O)CCCCCCCCCCCCCCCCCCC(=O)O)C(=O)O)C(=O)N[C@@H](CC(N)=O)C(=O)N[C@@H]([C@@H](C)O)C(=O)N[C@@H](C)C(=O)N[C@@H]([C@@H](C)O)C(=O)N1)[C@@H](C)O)C(=O)N[C@@H](CC(C)C)C(=O)N1CCC[C@H]1C(=O)N1CCC[C@H]1C(=O)N[C@H](C(=O)N[C@@H](CC(N)=O)C(=O)N[C@H](C(=O)NCC(=O)N[C@@H](CO)C(=O)N[C@@H](CC(N)=O)C(=O)N[C@H](C(=O)N[C@@H](Cc1ccc(O)cc1)C(N)=O)[C@@H](C)O)C(C)C)[C@@H](C)O` ({C20 diacid-γGlu}-RCNTATCATQRLAEFLHHSSNNFGPILPPTNVGSNTY-NH2; disulfide 2-7), for which the EC50 was determined as 0.107 nM in data set [1], 0.539 nM in [7], 0.188 nM in data set [10] and 0.121 nM in [12]. For the same molecule, the solubility in [2] amounted to 200 µM (≈ 897 µg/mL); in data set [3], 160 µM (≈ 717 µg/mL); in data set [5], 200 µM (≈ 897 µg/mL); in data set [6], 200 µM (≈ 897 µg/mL); in data set [8], 200 µM (≈ 897 µg/mL); in [16], 200 µM (≈ 897 µg/mL). The solubility was found to be 174 µM (≈ 780 µg/mL) in data set [20] and 200 µM (≈ 897 µg/mL) in data set [23]. The TIME in [4] was determined as 12 h. Also, the Ratio IC50 in data set [9] came out at 0.2; in data set [14], 3. Further, the Ratio EC50 was 3 in data set [11] and 1 in [19]. For the same molecule, the results for the Activity in [13], in data set [15] and in data set [21] were 26%, 53% and 56%, respectively. Moreover, the half-maximal inhibitory concentration (IC50) came to 0.192 nM in data set [17], 0.087 nM in data set [18], 0.039 nM in [22] and 0.029 nM in [24].
In the case of `CC[C@H](C)[C@H](NC(=O)[C@@H]1CCCN1C(=O)CNC(=O)[C@H](Cc1ccccc1)NC(=O)[C@H](CC(N)=O)NC(=O)[C@H](CC(N)=O)NC(=O)[C@H](CO)NC(=O)[C@H](CO)NC(=O)[C@H](Cc1cnc[nH]1)NC(=O)[C@H](Cc1cnc[nH]1)NC(=O)[C@H](CC(C)C)NC(=O)[C@H](Cc1ccccc1)NC(=O)[C@H](CCC(=O)O)NC(=O)[C@H](C)NC(=O)[C@H](CC(C)C)NC(=O)[C@H](CCCNC(=N)N)NC(=O)[C@H](CCC(N)=O)NC(=O)[C@@H](NC(=O)[C@H](C)NC(=O)[C@@H]1CSSC[C@H](NC(=O)CC[C@H](NC(=O)CCCCCCCCCCCCCCCCCCC(=O)O)C(=O)O)C(=O)N[C@@H](CC(N)=O)C(=O)N[C@@H]([C@@H](C)O)C(=O)N[C@@H](C)C(=O)N[C@@H]([C@@H](C)O)C(=O)N1)[C@@H](C)O)C(=O)N[C@@H](CC(C)C)C(=O)N1CCC[C@H]1C(=O)N1CCC[C@H]1C(=O)N[C@H](C(=O)N[C@@H](CC(N)=O)C(=O)N[C@H](C(=O)NCC(=O)N[C@@H](CO)C(=O)N[C@@H](CC(N)=O)C(=O)N[C@H](C(=O)N[C@@H](Cc1ccc(O)cc1)C(N)=O)[C@@H](C)O)C(C)C)[C@@H](C)O` ({C20 diacid-γGlu}-CNTATCATQRLAEFLHHSSNNFGPILPPTNVGSNTY-NH2; disulfide 1-6), the EC50 in data set [1] was 0.117 nM; in data set [12], 0.125 nM. The solubility in data set [2], in [3], in data set [5], in data set [6], in data set [8] and in data set [16] was 200 µM (≈ 866 µg/mL) throughout. Further, the solubility in [20] and in data set [23] was 200 µM (≈ 866 µg/mL) in each case. In addition, in data set [4], the TIME is 9 h. The Ratio IC50 came out at 0.3 in [9] and 5 in data set [14]. Further, the Activity in data set [13] is 0%; in data set [15], 36%; in data set [21], 39%. Besides, the IC50 stood at 1.35 nM in data set [17], 0.93 nM in data set [18], 0.469 nM in [22] and 0.182 nM in data set [24]. The Ratio EC50 in [19] came to 1.
For `CC[C@H](C)[C@H](NC(=O)[C@@H]1CCCN1C(=O)CNC(=O)[C@H](Cc1ccccc1)NC(=O)[C@H](CC(N)=O)NC(=O)[C@H](CC(N)=O)NC(=O)[C@H](CO)NC(=O)[C@H](CO)NC(=O)[C@H](CCCNC(=N)N)NC(=O)[C@H](Cc1cnc[nH]1)NC(=O)[C@H](CC(C)C)NC(=O)[C@H](Cc1ccccc1)NC(=O)[C@H](CCC(=O)O)NC(=O)[C@H](C)NC(=O)[C@H](CC(C)C)NC(=O)[C@H](CCCNC(=N)N)NC(=O)[C@H](CCC(N)=O)NC(=O)[C@@H](NC(=O)[C@H](C)NC(=O)[C@@H]1CSSC[C@H](NC(=O)[C@H](CCCCN)NC(=O)[C@@H](CCCNC(=N)N)NC(=O)[C@@H](CCCNC(=N)N)NC(=O)COCCOCCNC(=O)COCCOCCNC(=O)CC[C@H](NC(=O)CCCCCCCCCCCCCCCCCCC(=O)O)C(=O)O)C(=O)N[C@@H](CC(N)=O)C(=O)N[C@@H]([C@@H](C)O)C(=O)N[C@@H](C)C(=O)N[C@@H]([C@@H](C)O)C(=O)N1)[C@@H](C)O)C(=O)N[C@@H](CC(C)C)C(=O)N1CCC[C@H]1C(=O)N1CCC[C@H]1C(=O)N[C@H](C(=O)N[C@@H](CC(N)=O)C(=O)N[C@H](C(=O)NCC(=O)N[C@@H](CO)C(=O)N[C@@H](CC(N)=O)C(=O)N[C@H](C(=O)N[C@@H](Cc1ccc(O)cc1)C(N)=O)[C@@H](C)O)C(C)C)[C@@H](C)O` ({C20 diacid-γGlu-AEEA-AEEA}-[dR][dR]KCNTATCATQRLAEFLHRSSNNFGPILPPTNVGSNTY-NH2; disulfide 4-9), the EC50 in data set [1] was 0.608 nM; in data set [7], 1.89 nM; in data set [10] it was 0.132 nM; in [12], 0.078 nM. The solubility in [2], in [5], in data set [6], in data set [8], in data set [16] and in [23] was 200 µM (≈ 1020 µg/mL) each time. In addition, the TIME in data set [4] came out at 45 h. The Ratio IC50 came to 2 in data set [9] and 5 in data set [14]. Further, the Ratio EC50 in data set [11] is 14; in data set [19], 8. In addition, the Activity in [13] was 87%; in data set [15] it was 0%; in [21], 24%. Further, the IC50 in data set [17] was 0.052 nM; in [18] it was 0.156 nM; in data set [22], 0.085 nM; in [24], 0.03 nM.
